Each structure is given as a SMILES string.

Holding throughout (format): functional
One assay has as its system Tetranychus cinnabarinus. The assay is described as follows: Insecticidal activity against Tetranychus cinnabarinus (carmine spider mite) […] assessed as larvicidal activity at 0.006 mg/L after 48 hr.
The next assay deals with Aphis fabae. In words: Insecticidal activity against Aphis fabae (black bean aphid) infested soybean tender shoots measured 48 hr post compound dose by modified FAO dip method. Details: concentration or dose not given beside the values.
For the next assay, the system named is Mythimna separata. In words: Insecticidal activity against Mythimna separata (Oriental armyworm) fourth-instar larvae reared compound pre-treated corn leaves assessed as insect mortality at 200 mg/L measured 2 days post compound dose.

One may read the mortality as the percentage killed. Consider `CCC(C)[C@H]1O[C@]2(CC[C@@H]1C)C[C@@H]1C[C@@H](C/C=C(\C)[C@@H](O[C@H]3C[C@H](OC)[C@@H](OC(=O)c4ccc(OC)cc4)[C@H](C)O3)[C@@H](C)/C=C/C=C3\CO[C@@H]4[C@H](O)C(C)=C[C@@H](C(=O)O1)[C@]34O)O2` (stereo not given in full), for which the mortality at 0.006 µg/mL in the assay with Tetranychus cinnabarinus stood at 9.7%. Moreover, the mortality with Aphis fabae is on record as 92.3%. In the assay on Mythimna separata, the mortality at 200 µg/mL was determined as 100%.

Regarding `CCC(C)[C@H]1O[C@]2(CC[C@@H]1C)C[C@@H]1C[C@@H](C/C=C(\C)[C@@H](O[C@H]3C[C@H](OC)[C@@H](OC(=O)C4C(C=C(Br)Br)C4(C)C)[C@H](C)O3)[C@@H](C)/C=C/C=C3\CO[C@@H]4[C@H](O)C(C)=C[C@@H](C(=O)O1)[C@]34O)O2` (stereo not given in full), the mortality at 0.006 µg/mL in the assay on Tetranychus cinnabarinus turned out to be 13.4%. The compound further had a mortality with Aphis fabae of 100%. The mortality at 200 µg/mL in the assay on Mythimna separata was found to be 83.3%.

Turning to `CCC(C)[C@H]1O[C@]2(CC[C@@H]1C)C[C@@H]1C[C@@H](C/C=C(\C)[C@@H](OC(=O)CC(C)(C)C)[C@@H](C)/C=C/C=C3\CO[C@@H]4[C@H](O)C(C)=C[C@@H](C(=O)O1)[C@]34O)O2` (stereo not given in full), in the assay on Tetranychus cinnabarinus, the mortality at 0.006 µg/mL came to 35.5%. In the assay on Aphis fabae, the mortality is 76.5%. Moreover, in the assay on Mythimna separata, the mortality at 200 µg/mL was 88.9%.

On to `CCC(C)[C@H]1O[C@]2(CC[C@@H]1C)C[C@@H]1C[C@@H](C/C=C(\C)[C@@H](O[C@H]3C[C@H](OC)[C@@H](OC(=O)c4ccccc4)[C@H](C)O3)[C@@H](C)/C=C/C=C3\CO[C@@H]4/C(=N/OC)C(C)=C[C@@H](C(=O)O1)[C@]34O)O2` (stereo not given in full), for which the mortality at 0.006 µg/mL in the assay with Tetranychus cinnabarinus is 8.6%. Further, the mortality with Aphis fabae is on record as 5.9%. In addition, the mortality at 200 µg/mL in the assay on Mythimna separata worked out at 0%.

For the compound `CCC(C)[C@H]1O[C@]2(CC[C@@H]1C)C[C@@H]1C[C@@H](C/C=C(\C)[C@@H](O[C@H]3C[C@H](OC)[C@@H](OC(=O)C4C(C=C(Cl)Cl)C4(C)C)[C@H](C)O3)[C@@H](C)/C=C/C=C3\CO[C@@H]4[C@H](O)C(C)=C[C@@H](C(=O)O1)[C@]34O)O2` (stereo not given in full), in the assay on Tetranychus cinnabarinus, the mortality at 0.006 µg/mL is 11.8%. The compound further gave a mortality in the assay on Aphis fabae of 92.3%. Besides, in the assay on Mythimna separata, the mortality at 200 µg/mL stood at 87.2%.

For `CCC(C)[C@H]1O[C@]2(CC[C@@H]1C)C[C@@H]1C[C@@H](C/C=C(\C)[C@@H](O[C@H]3C[C@H](OC)[C@@H](OC(=O)c4cc(F)c(Cl)nc4Cl)[C@H](C)O3)[C@@H](C)/C=C/C=C3\CO[C@@H]4[C@H](O)C(C)=C[C@@H](C(=O)O1)[C@]34O)O2` (stereo not given in full), the mortality at 0.006 µg/mL in the assay with Tetranychus cinnabarinus worked out at 16.5%. Moreover, the mortality in the assay with Aphis fabae is 88.2%. Moreover, in the assay with Mythimna separata, the mortality at 200 µg/mL worked out at 0%.

Turning to `CCC(C)[C@H]1O[C@]2(CC[C@@H]1C)C[C@@H]1C[C@@H](C/C=C(\C)[C@@H](O[C@H]3C[C@H](OC)[C@@H](OC(=O)c4ccc(OC)cc4)[C@H](C)O3)[C@@H](C)/C=C/C=C3\CO[C@@H]4/C(=N/OC)C(C)=C[C@@H](C(=O)O1)[C@]34O)O2` (stereo not given in full), in the assay with Tetranychus cinnabarinus, the mortality at 0.006 µg/mL was 6.8%. In addition, the mortality in the assay with Aphis fabae was found to be 9.3%. In addition, the mortality at 200 µg/mL in the assay on Mythimna separata is 0%.

Take `CCC(C)[C@H]1O[C@]2(CC[C@@H]1C)C[C@@H]1C[C@@H](C/C=C(\C)[C@@H](O[C@H]3C[C@H](OC)[C@@H](OC(=O)c4ccc(C)cc4)[C@H](C)O3)[C@@H](C)/C=C/C=C3\CO[C@@H]4[C@H](O)C(C)=C[C@@H](C(=O)O1)[C@]34O)O2` (stereo not given in full): in the assay on Tetranychus cinnabarinus, the mortality at 0.006 µg/mL worked out at 4.5%. The mortality with Aphis fabae was 92.5%. For the same compound, in the assay with Mythimna separata, the mortality at 200 µg/mL amounted to 89.7%.

For `CCC(C)[C@H]1O[C@]2(CC[C@@H]1C)C[C@@H]1C[C@@H](C/C=C(\C)[C@@H](OC(=O)/C(=N\OC)c3ccccc3)[C@@H](C)/C=C/C=C3\CO[C@@H]4[C@H](O)C(C)=C[C@@H](C(=O)O1)[C@]34O)O2` (stereo not given in full), the mortality at 0.006 µg/mL in the assay with Tetranychus cinnabarinus came out at 41.5%. The compound also showed a mortality in the assay with Aphis fabae of 86.3%. Besides, the mortality at 200 µg/mL in the assay with Mythimna separata was found to be 75.5%.

As to `CCC(C)[C@H]1O[C@]2(CC[C@@H]1C)C[C@@H]1C[C@@H](C/C=C(\C)[C@@H](OC(=O)c3ccc(F)cc3)[C@@H](C)/C=C/C=C3\CO[C@@H]4/C(=N/OC)C(C)=C[C@@H](C(=O)O1)[C@]34O)O2` (stereo not given in full), the mortality at 0.006 µg/mL in the assay with Tetranychus cinnabarinus turned out to be 19.8%. Further, the mortality with Aphis fabae was determined as 0%. For the same compound, the mortality at 200 µg/mL in the assay on Mythimna separata was 0%.

Values taken from ChEMBL document CHEMBL3046616, “Design, synthesis, and biological activities of milbemycin analogues” (2011).
